Results on one compound are retold here after article PMC10666288, “Unveiling the Catalytic Mechanism of a Processive Metalloaminopeptidase” (Biochemistry, 2023).

Holding throughout (design): GG stays after cleavage) (N); made in house; host or cells: E. coli BL21(DE3)
Assay [1] addresses T1, PaPepA (Pseudomonas aeruginosa, UniProt Q02RY8). Description: Isothermal titration calorimetry of metal binding. As to the method:
Purified PaPepA (100 μM) was buffer exchanged into ITC buffer (50 mM Tris, 140 mM NaCl, pH 7.4) using a Millipore Amicon Ultra-4 centrifugal unit (10 kDa MWCO). The protein was syringe-filtered through a […] and diluted to 50 μM. 3 mL solutions of filtered metal were also prepared. A 400 μM solution of MnCl2 and a 1 mM solution of MgCl2 were prepared by dilution of 1 M metal chloride stocks (Sigma) into ITC buffer.
Buffer, protein, and metal solutions were degassed. Following extensive washes with ITC buffer, the protein was loaded into the cell (volume 1.43 mL) of a VP-ITC (MicroCal) and MnCl2 or MgCl2 solution was loaded into the syringe (total volume 300 μL). Experiments were carried out using the following settings: temperature = 25 °C, duration = 4 s, spacing = 210 s, filter period = 2 s, for 35 injections (one injection of 2 μL followed by 34 injections of 8 μL). Data were analyzed using Origin(Pro), Version 2021 (OriginLab Corporation, Northampton, Massachusetts, USA), and MicroCal PEAQ-ITC analysis software (Malvern).
For orientation: Isothermal titration calorimetry measures the heat released or taken up as one component is titrated into another.

The target of assay [2] is T1, PaPepA. In words: Metal activation of Leu-pNA cleavage (metal varied, Leu-pNA fixed). The format is biochemical. To be noted: with 2 mM Leu-pNA. On the procedure:
A BMG Labtech POLARstar Omega plate reader was used for activity assays and kinetic studies involving amino acids conjugated to para-nitroaniline (pNA) (Sigma) or peptides as substrates. Assays were carried out at 25 °C in clear half-area 96-well plates (Greiner Bio-One). […] For kinetic assays investigating Leu-AMC as a substrate, a SpectraMax M2E was used. Reactions were carried out using black half-area 96-well plates with clear bottoms (Greiner Bio-One). Product formation was assessed by monitoring changes in fluorescence, with the excitation wavelength set at 341 nm and emission at 441 nm. The cutoff was 420 nm. PMT gain was set to medium, with six flashes per read. […] Calibration curves of pNA concentration vs absorbance and AMC vs fluorescence were constructed, and initial rate values were divided by the slope of these calibration curves to reveal the rate of product formation over time (Table S2).
For all assays excluding pH dependence curves, buffer conditions were as follows: 100 mM HEPES, 50 mM KCl, and pH 8.0. For assays carried out under pseudo-first-order conditions, one reaction component was fixed and in excess, while the other was varied. […] For assays involving variation of aa-pNA or aa-AMC, MnCl2 was added to a final concentration of 3 mM.

Assay [3] concerns the target T1, PaPepA. Description: Room-temperature EPR spectroscopy Mn2+ titration. To be noted: 20 μM PaPepA, 1:0.9 enzyme:Mn^2+ binding model, to be taken as upper limit. On the procedure: EPR spectra were obtained with a Bruker EMX 10/12 spectrometer running Xenon software and equipped with an ELEXSYS Super Hi-Q resonator at an operating frequency of ∼9.5 GHz with a 100 kHz modulation. EPR spectra for Mn titrations were recorded at room temperature using a 160 mT field sweep centered at 350 mT, a time constant of 40.96 ms, a conversion time of 133.53 ms, and a 480-point resolution. An attenuation of 10 dB (20.7 mW power) and a modulation amplitude of 1 mT were used. Spectra were phase- and background-corrected, and the double integral was obtained using the Xenon software.
For acquiring EPR spectra, 20 μM PaPepA was used in 100 mM HEPES pH 7.5, 50 mM KCl with increasing concentration of MnCl2: 0–30 μM in steps of 2, 35, and 40 μM (18 steps). For the calibration curve, the same buffer and steps were employed in the absence of enzyme.

Assay [4] concerns the target T1, PaPepA. The format is biochemical. The text has this: Viscosity effects were studied by using sucrose as a viscogen. Relative viscosities for different concentrations of sucrose were taken from Bazelyansky et al.[27] Concentrations of viscogen were as follows: 14% sucrose, ηrel = 1.5; 24% sucrose, ηrel = 2.2; and 32% sucrose, ηrel = 2.9.
Viscosity effects were fit to the following equation, where kinetic parameter0 and kinetic parameterη are kcat or kcat/KM in the […] of viscogen, respectively, ηrel is the relative viscosity of the solution, and m is the slope. [drawing 4] 4
All measurements were performed in triplicate.

For assay [5], the target named is T1, PaPepA. The format is biochemical. The source holds these as a separate data set.
Where [6] appears, read: H2O (0% PEG-8000), MnCl2 varied.

Values joined by “and” are separate entries in the source; they are usually repeats but may differ in a detail not shown here. Equal entries are not always repeated. Where two headings read alike, the source gives them in different places.

T1 sequence (Q02RY8 whole entry): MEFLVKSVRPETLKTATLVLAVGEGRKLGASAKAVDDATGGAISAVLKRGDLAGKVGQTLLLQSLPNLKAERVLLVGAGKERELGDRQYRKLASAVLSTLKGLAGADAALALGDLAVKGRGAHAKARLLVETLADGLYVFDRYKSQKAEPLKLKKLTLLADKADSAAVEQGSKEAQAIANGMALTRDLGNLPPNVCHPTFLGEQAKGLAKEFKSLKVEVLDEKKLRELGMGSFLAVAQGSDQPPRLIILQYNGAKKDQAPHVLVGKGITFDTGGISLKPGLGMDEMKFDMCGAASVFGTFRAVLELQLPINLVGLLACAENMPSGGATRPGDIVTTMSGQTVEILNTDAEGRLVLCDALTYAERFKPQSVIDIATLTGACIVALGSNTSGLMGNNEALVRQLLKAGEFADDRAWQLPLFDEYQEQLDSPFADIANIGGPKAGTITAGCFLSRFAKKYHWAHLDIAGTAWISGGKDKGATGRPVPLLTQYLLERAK

Broadly, the Kd is the free concentration of one partner at which half of the binding sites on the other are occupied at equilibrium, for simple one-to-one binding. A low value points to a tighter complex. For the compound `[Mn+2]` [Mn^2+], in assay [1] (ITC titration curves), the “greater affinity for Mn^2+ than Mg^2+” value is listed as “approximately 150 times”. Also, the Kd was 0.0122 ± 0.0015 µM in assay [1] (ITC, first line per metal: N 1, [PepA] 35.80 ± 1.5 (Mn) or 32.60 (Mg) µM, [Metal] 400.0 or 1000 µM); 0.0136 ± 0.0005 µM in assay [1] (ITC, one binding site per monomer, 25 °C, pH 7.4); 0.012 µM in assay [1] (ITC, one binding site per monomer, 25 °C, pH 7.4, listed as Mn2+); 0.0163 ± 1e-05 µM in assay [1] (ITC, second line per metal: N 1, [PepA] 47.00 or 48.00 µM, [Metal] 526.5 ± 22.5 (Mn) or 1470 (Mg) µM); 0.0122 ± 0.0001 µM in assay [1] (ITC, third line per metal: N fitted, [PepA] 47.00 or 48.00 µM, [Metal] 400.0 or 1000 µM); 174 nM and ~174 nM in assay [3]. In assay [1] (ITC, third line per metal: N fitted), this compound displayed an N of 0.76 ± 0.03. Moreover, the KACT in assay [2] (pH 8.0) worked out at 0.10 ± 0.01 mM; in assay [2] (pH 8.0, as given in text), 0.1 mM; in assay [4] (setting [6]), 0.19 ± 0.01; in assay [5] (5 % PEG 8000, MnCl2 varied), 0.19 ± 0.03. Also, the kcat in assay [2] (pH 8.0) is 0.27 s^–1 and 0.274 ± 0.004 s^–1; in assay [4] (H2O (0% PEG-8000), labelled component varied, other saturating, in 1/s), 0.409 ± 0.009; in assay [5] (5 % PEG 8000, labelled component varied, other saturating, in 1/s), 0.43 ± 0.02. Also, the kcat/KACT in assay [2] (pH 8.0) was determined as 2.7 ± 0.2 s^–1mM^–1; in assay [4] (setting [6]), 2.2 ± 0.2; in assay [5] (5 % PEG 8000, MnCl2 varied) it was 2.2 ± 0.4. Besides, the “Slope (sucrose) on kcat/KACT” value in assay [4] (sucrose as viscogen, Mn2+ variation) is given as -0.10 ± 0.06. The “Slope (sucrose) on kcat” value in assay [4] (sucrose as viscogen, labelled component varied) came out at 0.14 ± 0.05.
